# Data published in US6900239B2, “Tumor chemopotentiation using isocoumarin derivatives” (ILWZ ILEX Products, Inc., priority 2000, dated 2005).
# What was measured:
# [1] = system: MDAMB-435 human breast tumor xenografts; assay: MDAMB-435 orthotopic model, NM-3 with 5-Fluorouracil; assay type: in vivo, female NCRNU nude mice; settings: NM-3 100 mg/kg/day i.p. alone
# Description: In order to evaluate the antitumor activity of NM-3 in combination with 5-Fluorouracil (5-FU) vs. MDAMB-435 human breast tumor xenografts, female NCRNU nude mice were implanted with MDAMB-435 cells into the subaxillary mammary fat pad. When the tumors were between 50 and 80 mm^3, NM-3 was administered via intraperitoneal (i.p.) injection daily at 10 and 100 mg/kg; 5-FU was administered via i.p. injection on days 0 and 14, at 10 mg/kg. Mice were weighed twice weekly, and tumor measurements were taken by calipers twice weekly. Mice were euthenized at the end of the treatment period. Upon termination, the mice were weighed, sacrificed and their tumors were excised.
# Initial studies were conducted with 5-FU to determine the optimal dose of this agent when administered in combination with NM-3.
# [2] = system: MDAMB-435 human breast tumor xenografts; assay: MDAMB-435 orthotopic model, NM-3 with paclitaxel, second study (100 mm^3) and delivery routes; assay type: in vivo, female NCRNU nude mice
# Description: In order to determine the effect of the combination of NM-3 with the cytotoxic drug, paclitaxel on human breast tumor xenografts, female NCRNU nude mice were implanted with MDAMB-435 cells into the subaxillary mammary fat pad. NM-3 was administered via intraperitoneal (i.p.) injection daily at doses ranging from 10-100 mg/kg; paclitaxel was administered via i.p. injection every 7 days, starting on day 0, at 10 mg/kg.
# In a second study, treatment was initiated when tumor volumes reached 100 mm^3. Paclitaxel was administered at the fixed dose of 12.5 mg/kg, q7d and NM-3 was dosed at 10 and 100 mg/kg, i.p. daily for 28 days.
# A comparison was also made between different delivery routes of NM-3 in the combination studies. NM-3 given i.p. daily, bid, and continuously using Alzet mini osmotic pumps in combination with paclitaxel was evaluated for effectiveness in reducing tumor growth.
# [3] = system: MCF7 (breast tumor cells); assay: Cell growth (WST-1) in the presence of NM-3; assay type: cell-based; settings: Homo sapiens, MCF7, 72 h; 3 days culture with NM-3
# Description: (§1) To determine the extent to which NM-3 [2-(8-hydroxy-6-methoxy-1-oxo-1H-2-benzopyran-3-yl) propionic acid] inhibited the proliferation of, or was cytotoxic toward, human tumor cells and normal mouse cells, a variety of cell lines were grown in the presence of NM-3. The human cell lines used were K562 (leukemia cells), HT29 (colon tumor cells) HT1080 (reticulum blast sarcoma cells), and MCF7 (breast tumor cells). The mouse cells used were NIH3T3 cells (fibroblasts). All cell lines were cultured in 96-well plates to a density of 2-5×10^3 cells/well. Culture medium (RPMI 1640 plus 10% FBS) alone or containing NM-3 at one of several concentrations tested was then added to the cultures which were allowed to grow for an additional 3 days. To assess cell growth, 10 μl of WST-1 reagent (a chromogenic substrate for living cells) was added to each well and incubation continued for 3 hrs at 37° C. Absorbance at 450 nm was then determined using a plate reader.
# K562 (leukemia cells) = assay: Cell growth (WST-1) in the presence of NM-3; assay type: cell-based; settings: Homo sapiens, K562, 72 h; 3 days culture with NM-3
# Description: as §1
# [4] = system: NIH3T3 cells (fibroblasts); assay: Cell growth (WST-1) in the presence of NM-3; assay type: cell-based; settings: Mus musculus, NIH3T3, 72 h; 3 days culture with NM-3
# Description: as §1
# [5] = system: HT1080 (reticulum blast sarcoma cells); assay: Cell growth (WST-1) in the presence of NM-3; assay type: cell-based; settings: Homo sapiens, HT-1080, 72 h; 3 days culture with NM-3
# Description: as §1
# HT29 (colon tumor cells) = assay: Cell growth (WST-1) in the presence of NM-3; assay type: cell-based; settings: Homo sapiens, HT-29, 72 h; 3 days culture with NM-3
# Description: as §1
# [6] = system: Human umbilical vein endothelial cells (HUVEC); assay: HUVEC colony formation with a constant amount of gamma radiation; assay type: cell-based
# Description: Human umbilical vein endothelial cells (HUVEC) were exposed to a constant amount of gamma radiation in the presence or absence of various concentrations of NM-3 in the culture medium. The numbers of HUVEC colonies that formed following the different treatments were recorded and normalized to the number of colonies formed under control (no NM-3) conditions and the results are shown in FIG. 1. […] For comparison, HUVEC cells were treated with either angiostatin or endostatin, two additional anti-angiogenic proteins.
# LLC tumor = assay: LLC tumors, second experiment, complete cures; assay type: in vivo; settings: NM-3 25 μg/kg daily over the first four days + 20 Gy X-irradiation on days 2 and 4
# Description: In a second similar experiment, X-ray treatment and X-ray treatment combined with NM-3 treatment were again compared for their relative abilities to inhibit LLC tumor growth. However, the treatment period was extended to determine whether either treatment regimen was able to initiate complete tumor cures. Animals were injected with […] initially and starting tumor volumes were approximately 500 mm^3. Tumors were irradiated on days 2 and 4 with 20 Gy X-irradiation. NM-3 was administered at 25 μg/kg daily over the first four days. The tumors of both groups increased slightly in size following initiation of treatment and then began to decrease after several days. Tumors in the X-ray only group began to increase steadily in size after the 10th day of continuous treatment. In contrast, tumors in the NM-3+X-ray group continued to decrease in size following the initial growth phase. Ultimately, 9 of 10 animals receiving NM-3+X-ray treatment experienced a complete cure while only 3 of 10 animals were cured by the X-ray treatment alone.
# [7] = system: human tumor cells and normal mouse cells; assay: Cell growth (WST-1), summary over all cell lines; assay type: cell-based
# Description: as §1
smiles,measurement,setting,value
"COc1cc(O)c2c(=O)oc(C(C)C(=O)O)cc2c1 (stereo not shown) [NM-3, 2-(8-hydroxy-6-methoxy-1-oxo-1H-2-benzopyran-3-yl) propionic acid]",% Tumor Growth Inhibition,[1],24.1%
same,% Tumor Growth Inhibition,[2]; NM-3 100 mg/kg I.P. daily alone,26.67%
same,Final Tumor Ratio (V/Vo) +/− SEM,"[2]; NM-3 100 mg/kg I.P. daily alone, 28 days",4.70 ± 0.56 V/Vo
same,Mice with Complete Shrinkage,"[2]; NM-3 100 mg/kg I.P. daily alone, n 9",0
same,Tumor growth inhibition,"[2]; NM-3 alone, daily dose of 10 mg/kg",no significant tumor growth inhibition
same,IC50,[3],223 µg/mL
same,IC50,K562 (leukemia cells),250 µg/mL
same,IC50,[4],> 100 µg/mL
same,IC50,[5],300 µg/mL
same,IC50,HT29 (colon tumor cells),> 300 µg/mL
same,"ED50, decrease of HUVEC colony formation",[6],approximately 1 μg/ml
same,Animals with complete cure,LLC tumor,9 of 10
same,IC50,[7],> 100 µg/mL
